Data reported in BigSolDB 2.1.

Cc1cnc(C(=O)O)c[n+]1[O-]
solubility (mole fraction)
Conditions | 283.15 K | 288.15 K | 293.15 K | 298.15 K | 303.15 K | 308.15 K | 313.15 K | 318.15 K
in acetone | 0.00157 | 0.00176 | 0.00198 | 0.00222 | 0.00249 | 0.00279 | 0.00317 | 0.00362
in acetonitrile | 0.00057 | 0.000757 | 0.00097 | 0.00118 | 0.00142 | 0.00172 | 0.00205 | 0.00249
in methanol | 0.00211 | 0.00244 | 0.00285 | 0.00328 | 0.00381 | 0.00443 | 0.00517 | 0.00598
in water | 0.00198 | 0.00227 | 0.00265 | 0.0031 | 0.0036 | 0.00426 | 0.00498 | 0.00579
